According to US20050042213A1, “Methods and pharmaceutical compositions for modulating heparanase activation and uses thereof” (InSight Biopharmaceuticals Ltd., priority 2003, published 2005):

Legend:
pro-heparanase (H60) [1] = target: T1, pro-heparanase (H60) (Homo sapiens, UniProt Q9Y251, K307R); test: Circular dichroism spectrometry of pro-heparanase; conditions: data not shown
T1 sequence (Q9Y251 36-543 K307R): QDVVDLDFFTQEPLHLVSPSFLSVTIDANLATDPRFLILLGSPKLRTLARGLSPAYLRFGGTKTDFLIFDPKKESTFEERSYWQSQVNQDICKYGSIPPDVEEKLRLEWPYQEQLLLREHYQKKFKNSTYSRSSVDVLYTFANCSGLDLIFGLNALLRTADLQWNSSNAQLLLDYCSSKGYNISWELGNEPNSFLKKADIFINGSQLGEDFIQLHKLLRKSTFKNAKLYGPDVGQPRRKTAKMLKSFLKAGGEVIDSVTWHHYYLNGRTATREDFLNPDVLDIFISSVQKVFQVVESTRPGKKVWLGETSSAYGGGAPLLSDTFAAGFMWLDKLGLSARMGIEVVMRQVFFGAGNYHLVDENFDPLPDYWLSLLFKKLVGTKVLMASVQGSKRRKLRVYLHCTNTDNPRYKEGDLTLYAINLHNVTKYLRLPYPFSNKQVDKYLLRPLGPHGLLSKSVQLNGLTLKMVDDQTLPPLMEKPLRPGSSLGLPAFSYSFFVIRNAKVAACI
Protocol: Circular Dichroism spectrometry—Circular Dichroism spectra were recorded using a JASCO 500 spetropolarimeter. Far Ultraviolet measurements (260-200 nm) were performed in a 0.1 mm demountable cuvette at 25° C., scanning at a rate of 10 nm/min. Pro-heparanase was assayed at a concentration of 0.72 mg/ml in 20 mM sodium phosphate buffer pH 6.8 supplemented with 300 mM NaCl. Effect of heparin on pro-heparanase spectra was determined at a concentration of 100 μM, and the inhibitor was added at a concentration of 15 μM. Base-line recordings were performed in the presence and absence of heparin to correct the pro-heparanase spectra.

HUVEC cell = test: Cell Migration Assay (Boyden chamber); format: cell-based; conditions: Homo sapiens, HUVEC cells, 5 h, read-out: Inhibition of chemotaxis IC50
Protocol: (§1) Cord formation and cell migration assays were executed following explicit directives provided by the inventors of the present invention by the National Cancer Institute (Biological Testing Branch, Developmental Therapeutics Program, DCTD, NCI, Fairview Center, Suite 205, 1003 West 7th Street, Frederick, Md. 21701-8527).
Cell Migration Assay—Migration was assessed using a 48-well Boyden chamber including 8 μm pore size collagen-coated (10 μg/ml rat tail collagen; Collaborative Laboratories) polycarbonate filters (Osmonics, Inc.). The bottom chamber wells included 27-29 μl of DMEM medium alone (baseline) or medium containing chemo-attractant (bFGF, VEGF or Swiss 3T3 cell conditioned medium). The top chambers included 45 μl of HUVEC cell suspension (1×10^6 cells/ml) prepared in DMEM+1% BSA with or without the test compound. Followinf 5 h of incubation at 37° C., the membrane was rinsed with PBS, fixed and stained in Diff-Quick solutions. The filter was placed on a glass slide with the migrated cells facing down and cells on top were removed using a Kimwipe. The testing was performed in 4-6 replicates where five fields were counted from each well. Negative unstimulated control values were subtracted from stimulated control and drug treated values. Data wad plotted as mean migrated cell±S.D. IC50 was calculated from the plotted data.

β-FGF = target: T2, β-FGF (Homo sapiens, UniProt P09038); test: Elisa assay for binding of β-FGF to heparin; conditions: inhibition of β-FGF binding to heparin
T2 construct: purchased Sigma F0291
Protocol: Elisa assay for determination of binding of β-FGF to heparin—96 well microplates were coated overnight with Heparin-albumin (Lizard) and blocked with 1% BSA in PBS with 0.05% Tween and 0.01% thimerosal for 2 hrs. β-FGF was added to the plates at a concentration of 0.8 ng/ml and incubated for 45 min at 23-25° C. The amount of β-FGF bound to heparin was detected using anti-FGF monoclonal antibody (Sigma Cat. # F6162) at a concentration of 2.5 ng/ml and secondary antibodies Sheep anti-mouse IgG linked to horseradish peroxidase (1:3000). TMB (Pierce Cat. #34021) was used as a substrate for peroxidase.
The plates were read at 450 nm with a reference wavelength of 630 nm using a VERSAmax plate reader. […] Percent inhibition was calculated as compared with the control reactions pre-incubated with 1% DMSO only.

HUVEC cells = test: Cord Formation Assay; format: cell-based; conditions: Homo sapiens; HUVEC cells on matrigel, 24 h; read-out: Inhibition of cord formation IC50
Protocol: as §1
Cord Formation Assay—Matrigel (60 μl of 10 mg/ml; Collaborative Lab # 35423) was placed in each well of an ice-cold 96-well plate. The plate was incubated at room temperature for 15 minutes and then transferred to 37° C. for 30 minutes to permit matrigel polymerization. Concomitantly with plate coating, HUVEC cells were diluted in EGM-2 (Clonetic # CC3162) at a concentration of 2×10^5 cells/ml. Each test compound was prepared at a 2 fold higher concentration than desired (5 concentration levels) using the same medium. Cells (500 μl) and 2× drug (500 μl) were mixed and 200 μl of this suspension were placed in duplicates on the polymerized matrigel. Following 24 h incubation, triplicate pictures were taken for each concentration using a Bioquant Image Analysis system. Drug effect (IC50) was assessed by comparing to untreated controls and measuring the length of cords formed and number of junctions.

heparanase (H53) = target: T3, heparanase (H53) (Homo sapiens, UniProt Q9Y251, K307R); test: Heparanase activity inhibition (H53), DMB assay; format: biochemical
T3 sequence (Q9Y251 158-543 K307R limits assumed): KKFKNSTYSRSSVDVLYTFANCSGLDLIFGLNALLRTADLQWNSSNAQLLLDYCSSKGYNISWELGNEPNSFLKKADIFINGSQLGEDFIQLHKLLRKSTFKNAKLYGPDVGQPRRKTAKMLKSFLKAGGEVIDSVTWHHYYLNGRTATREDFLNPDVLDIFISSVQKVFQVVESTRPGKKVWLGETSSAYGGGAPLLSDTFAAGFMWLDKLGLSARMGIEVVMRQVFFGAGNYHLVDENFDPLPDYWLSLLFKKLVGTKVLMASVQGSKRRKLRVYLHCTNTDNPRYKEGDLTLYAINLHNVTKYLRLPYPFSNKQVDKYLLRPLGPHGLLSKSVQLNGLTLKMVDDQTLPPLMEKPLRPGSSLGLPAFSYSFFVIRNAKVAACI
T3 sequence (Q9Y251 36-109 limits assumed): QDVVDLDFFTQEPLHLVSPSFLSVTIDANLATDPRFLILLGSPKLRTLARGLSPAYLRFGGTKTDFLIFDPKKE
Protocol: At the end of the incubation, the cells were lysed by three consecutive cycles of freezing and thawing in a −80° C. Freezer and a 37° C. shaker. Formation of active heparanase was detected by determination of heparanase activity in DMB assay as described in patent application U.S. Pat. No. 6,190,875B.

pro-heparanase (H60) [2] = target: T1, pro-heparanase (H60); test: Surface plasmon resonance, interaction with the pro-heparanase polypeptide; format: binding; conditions: data not shown

T2 sequence (P09038 143-288): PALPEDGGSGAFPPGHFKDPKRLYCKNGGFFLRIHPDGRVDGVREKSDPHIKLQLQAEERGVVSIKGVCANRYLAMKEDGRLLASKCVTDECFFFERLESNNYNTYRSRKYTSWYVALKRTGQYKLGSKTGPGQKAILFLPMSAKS

- change in conformation of H60 induced by heparin (pro-heparanase (H60) [1]): prevents the change in conformation
- IC50 (β-FGF): 6.1 µM
- heparanase activity inhibition (H53) in addition to inhibition of pro-heparanase activation (heparanase (H53)): dual activity
- IC50 (heparanase (H53); heparanase activity inhibition (H53), NI = no inhibition): 12.5 µM
- binding to the H60 molecule (pro-heparanase (H60) [2]): reversibly bind
SMILES: O=C(O)CCCN1C(=O)C(=Cc2ccc(-c3ccc([N+](=O)[O-])cc3)o2)SC1=S [Compound 5]
- IC50 (HUVEC cell): 0.4 µM
- IC50 (HUVEC cells): 3.9 µM
